{"source": "patent US8178506B2", "about": "“Oligomeric compounds and compositions for use in modulation of small non-coding RNAs” (Regulus Therapeutics Inc., priority 2003, dated 2012)", "key": {"mir-15a miRNA": {"test_system": "mir-15a miRNA", "experiment": "pGL3-mir-15a sensor luciferase assay in HeLa cells", "type": "cell-based, human", "conditions": "for Relative luciferase activity: pGL3-mir-15a sensor-expressing HeLa cells", "text": "In order to assess the ability of miRNAs to bind predicted miRNA binding sites and regulate the expression of the luciferase reporter, in some embodiments, expression systems based on the pGL3-Control (Promega Corp., Madison Wis.) reporter vector and comprising either a mir-15a, mir-21, or a mir-23b miRNA binding site were developed and used in transient transfections of HeLa cells to determine whether the endogenous mir-15a, mir-21, or mir-23b miRNAs, respectively, could repress luciferase reporter gene expression.\nThe pGL3-mir-15a sensor plasmid was created by cloning the sequence ([…]; SEQ ID NO: 369), complementary to the mir-15a miRNA, into the Xba site of the pGL3-Control plasmid, placing the potential miRNA-binding site in the 3′UTR of the luciferase reporter. This reporter plasmid was used to transfect HeLa cells and it was observed that the endogenous mir-15a miRNA was able to inhibit luciferase expression from the pGL3-mir-15a sensor plasmid. Thus, to further evaluate the ability of the mir-15a miRNA to bind this target site encoded by the pGL3-mir-15a sensor plasmid, and to assess the ability of oligomeric compounds to interfere with mir-15a-mediated silencing, pGL3-mir-15a sensor-expressing HeLa cells were treated with varying concentrations (3-, 10- or 30 nM) of the following oligomeric compounds: ISIS Number 327951 (SEQ ID NO: 369) is a uniform 2′-MOE compound targeting the mature mir-15a-1 miRNA. ISIS Numbers 356213 (SEQ ID NO: 878), 356215 (SEQ ID NO: 879), 356216 (SEQ ID NO: 880), 356218 (SEQ ID NO: 881), 356221 (SEQ ID NO: 882), 356227 (SEQ ID NO: 883) and 356229 (SEQ ID NO: 884) are phosphorothioate, uniform 2′-MOE oligomeric compounds designed and synthesized to target the entire length of the mir-15a pri-miRNA molecule (described in detail in Example 28, below). […] The data presented in Table 42 are the average of three trials and are presented as percent untreated control (luciferase plasmid only, not treated with oligomeric compound) luciferase expression, normalized to pRL-CMV levels."}, "mir-15a pri-miRNA": {"test_system": "mir-15a pri-miRNA", "experiment": "mir-15a pri-miRNA expression in T47D cells (real-time RT-PCR)", "type": "cell-based, human", "text": "The gapmer oligomeric compounds targeting the mir-15b and mir-15-a-1 mature miRNAs described above were also transfected into T47D cells according to standard procedures. In addition, uniform 2′-MOE and 2′-MOE gapmer oligomeric compounds targeting the mature mir-15a-1 and mir-15b miRNAs were also transfected into T47D cells, for analysis of their effects on mir-15a-1 and mir-15b pri-miRNA levels. The oligomeric compounds ISIS Number 327927 (SEQ ID NO: 345), a uniform 2′-MOE compound and ISIS Number 345391 (SEQ ID NO: 345), a 2′-MOE 5-10-7 gapmer compound, both target mir-15b. The oligomeric compounds ISIS Number 327951 (SEQ ID NO: 369), a uniform 2′-MOE compound, and ISIS Number 345411 (SEQ ID NO: 369), a 2′-MOE 5-10-7 gapmer compound, both target mir-15a-1. Oligomeric compounds ISIS Number 129686 ([…]; SEQ ID NO: 901), and ISIS Number 129691 ([…]; SEQ ID NO:902), both universal scrambled controls, as well as ISIS Number 116847 ([…]; SEQ ID NO: 844) targeting an unrelated gene, PTEN, were used as negative controls. ISIS Numbers 129686, 129691, and 116847 are phosphorothiated 2′-MOE 5-10-5 gapmers, and all cytosines are 5-methylcytosines. T47D cells (seeded in 12-well plates) were treated with these oligomeric compounds, and RNA was isolated from the treated cells by lysing in 1 mL TRIZOL™ (Invitrogen) and total RNA was prepared using the manufacturer's recommended protocols. To assess the effects of these compounds on expression of the mir-15a or mir-15b pri-miRNA molecules, real-time RT-PCR analysis was performed using either the primer/probe set specific for the mir-15a pri-miRNA molecule described above, or a primer probe set specific for the mir-15b pri-miRNA molecule: ISIS 339320 ([…]; SEQ ID NO: 903) was used as the forward primer for the mir-15b pri-miRNA, ISIS 339321 ([…] ACTGT; SEQ ID NO: 904) was used as the reverse primer for the mir-15b pri-miRNA, and ISIS 339322 ([…]; SEQ ID NO: 905) was used as the probe. Total RNA was quantified using RiboGreen™ RNA quantification reagent (Molecular Probes, Inc. Eugene, Oreg.), expression levels observed for each target were normalized to 5.8S rRNA, and values are expressed relative to the untreated control. Inhibition of expression of the mir15a or mir-15b pri-miRNA molecules upon treatment with these oligomeric compounds is was assessed and expressed as a percentage of RNA levels in untreated control cells.\nUsing the real-time RT-PCR methods described, the expression levels of the mir-15a pri-miRNA were compared in T47D cells treated with the nested series of uniform 2′-MOE oligomeric compounds, targeting and spanning the entire length of the mir-15a pri-miRNA. The region encompassing the mir-15a primary transcript (the complement of nucleotides 31603159 to 31603468 of GenBank Accession number NT—024524.13; AAATAATTATG […]) is incorporated herein as SEQ ID NO: 906. ISIS Number 356215 (SEQ ID NO: 879) targets a region flanking and immediately 5′ to the predicted 5′ Drosha cleavage site in the mir-15a pri-miRNA. ISIS Number 356218 (SEQ ID NO: 881) targets aregion in the loop of the mir-15a pri-miRNA. ISIS 356227 (SEQ ID NO: 883) targets a region flanking and immediately 3′ to the predicted 3′ Drosha cleavage site in the mir-15a pri-miRNA. Additionally, oligomeric compound ISIS 327951 (SEQ ID NO: 369), a uniform 2′-MOE compound targeting the mature mir-15a-1 miRNA, was tested for comparison. Oligomeric compounds ISIS 327901 (SEQ ID NO: 319) targeting the mature mir-143 miRNA; ISIS 129690, ([…]; SEQ ID NO: 907), a phosphorothioate 5-10-5 MOE gapmer used as a universal scrambled control; and ISIS 116847 ([…]; SEQ ID NO: 844), a uniform 5-10-52′-MOE gapmer targeting an unrelated gene, PTEN, were used as negative controls. Using the transfection methods previously described, T47D cells were treated with 100 nM of each of these oligomeric compounds. […]"}, "ob/ob mice": {"test_system": "ob/ob mice", "experiment": "ob/ob mice: plasma parameters, food consumption, marker gene mRNA", "type": "in vivo, mouse", "conditions": "ob/ob mice", "text": "Leptin is a hormone produced by fat cells that regulates appetite. Deficiencies in this hormone in both humans and non-human animals leads to obesity. ob/ob mice have a mutation in the leptin gene which results in obesity and hyperglycemia. As such, these mice are a useful model for the investigation of obesity and diabetes and treatments designed to treat these conditions. ob/ob mice have higher circulating levels of insulin and are less hyperglycemic than db/db mice, which harbor a mutation in the leptin receptor. In accordance with the present invention, the oligomeric compounds of the invention are tested in the ob/ob model of obesity and diabetes.\nSeven-week old male C57B1/6J-Lep ob/ob mice (Jackson Laboratory, Bar Harbor, Me.) are fed a diet with a fat content of 10-15% and are subcutaneously injected with the oligomeric compounds of the invention or a control compound at a dose of 25 mg/kg two times per week for 4 weeks. Saline-injected animals, leptin wildtype littermates (i.e. lean littermates) and ob/ob mice fed a standard rodent diet serve as controls. After the treatment period, mice are sacrificed and target levels are evaluated in liver, brown adipose tissue (BAT) and white adipose tissue (WAT). RNA isolation and target RNA expression level quantitation are performed as described by other examples herein.\nTo assess the physiological effects resulting from modulation of target, the ob/ob mice are evaluated at the end of the treatment period for serum lipids, serum free fatty acids, serum cholesterol (CHOL), liver triglycerides, fat tissue triglycerides and liver enzyme levels. Hepatic steatosis, or clearing of lipids from the liver, is assessed by measuring the liver triglyceride content. Hepatic steatosis is assessed by routine histological analysis of frozen liver tissue sections stained with oil red O stain, which is commonly used to visualize lipid deposits, and counterstained with hematoxylin and eosin, to visualize nuclei and cytoplasm, respectively.\nThe effects of target modulation on glucose and insulin metabolism are evaluated in the ob/ob mice treated with the oligomeric compounds of the invention. Plasma glucose is measured at the start of the treatment and after 2 weeks and 4 weeks of treatment. Plasma insulin is similarly measured at the beginning of the treatment, and following at 2 weeks and at 4 weeks of treatment. Glucose and insulin tolerance tests are also administered in fed and fasted mice. Mice receive intraperitoneal injections of either glucose or insulin, and the blood glucose and insulin levels are measured before the insulin or glucose challenge and at 15, 20 or 30 minute intervals for up to 3 hours.\nThe ob/ob mice that receive treatment are evaluated at the end of the treatment period for the effects of target modulation on the expression of genes that participate in lipid metabolism, cholesterol biosynthesis, fatty acid oxidation, fatty acid storage, gluconeogenesis and glucose metabolism. These genes include, but are not limited to, HMG-CoA reductase, acetyl-CoA carboxylase 1 and acetyl-CoA carboxylase 2, camitine palmitoyltransferase I and glycogen phosphorylase, glucose-6-phosphatase and phosphoenolpyruvate carboxykinase 1, lipoprotein lipase and hormone sensitive lipase. mRNA levels in liver and white and brown adipose tissue are quantitated by real-time PCR as described in other examples herein, employing primer/probe sets that are generated using published sequences of each gene of interest.\nAs described herein, leptin-deficient (ob/ob) mice, leptin receptor-deficient (db/db) mice and diet-induced obesity (DIO) mice are used to model obesity and diabetes. In accordance with the present invention, oligomeric compounds targeting mir-143, mir-131 (also known as mir-9) and mir-203 were tested in the ob/ob and db/db models. […]"}, "DIO mice": {"test_system": "DIO mice", "experiment": "Diet-induced obesity (DIO) mice", "type": "in vivo", "conditions": "for insulin levels: two and four week time points, vs saline", "method": "As described, supra, the C57BL/6 mouse strain is reported to be susceptible to hyperlipidemia-induced atherosclerotic plaque formation, and when these mice are fed a high-fat diet, they develop diet-induced obesity (DIO). Accordingly, the DIO mouse model is useful for the investigation of obesity and development of agents designed to treat these conditions. In one embodiment of the present invention, oligomeric compounds targeting miRNAs were tested in the DIO model. Normal C57/BL6 male mice were fed a high fat diet (40% fat, 41% carbohydrate, 18% protein) for 12 weeks before the study began. DIO mice were then randomized by weight and insulin values. Initial body fat composition was determined by Dual X-ray Absorptiometry (DEXA) Scan. DIO mice were then subcutaneously injected with oligomeric compounds of the invention at a dose of 25 mg/kg, twice weekly. DIO mice were treated with oligomeric compounds ISIS Numbers 327901 and 340927 targeting mir-143, ISIS Numbers 327892 and 340926 targeting mir-131/mir-9, ISIS Numbers 327878 and ISIS Number 345349 targeting mir-203, and ISIS Numbers 327889 and 340925, targeting mir-23b. […] DEXA scans were also performed at weeks 0, 3 and 5 after treatment with the oligomeric compounds to assess the fat mass to lean mass ratio. The effects of target inhibition on levels of plasma glucose and insulin, liver transaminases, cholesterol and triglycerides, were also assessed weekly by tail bleed, and after the treatment period, mice were sacrificed and liver and kidney heart, as well as white adipose tissue (WAT) tissues collected. The mRNA expression levels of the Glut4, aP2, HSL and PPARγ marker genes are also assessed. […] Furthermore, some improvement in body composition (a reduction in body weight and fat mass) was observed."}, "[1]": {"conditions": "25 mg/kg s.c. two times per week, 6 weeks"}}, "note": "In the oligonucleotide strings, read from the 5' end, every base follows the letter of its sugar. An asterisk marks phosphorothioate; unmarked linkages are phosphodiester. Other units and linkages are bracketed, terminal groups are in braces. A string of capitals states the bases alone. e = 2'-O-(2-methoxyethyl) (MOE); [5mC] = 5-methylcytosine"}
{"substance": "356213 (eT*eA*eT*eA*eA*e[5mC]*eA*eT*eT*eG*eA*eT*eG*eT*eA*eA*eT*eA*eT*eG) [compound 356213]", "values": [{"measurement": "Relative luciferase activity", "setting": "mir-15a miRNA; 3 nM", "value": 101.2}, {"measurement": "Relative luciferase activity", "setting": "mir-15a miRNA; 10 nM", "value": 80.5}, {"measurement": "Relative luciferase activity", "setting": "mir-15a miRNA; 30 nM", "value": 109.9}, {"measurement": "mir-15a pri-miRNA expression % UTC", "setting": "mir-15a pri-miRNA; real-time RT-PCR", "value": 171, "unit": "% UTC"}]}
{"substance": "ACTTTCGGTTATCTAGCTTTA [ISIS 340926] (chemistry not given here) [5-10-6 gapmer; targets mir-131/mir-9]", "values": [{"measurement": "plasma glucose levels (fed)", "setting": "ob/ob mice; [1]", "value": "reduced beginning at approximately four weeks after the start of treatment"}, {"measurement": "plasma triglyceride levels", "setting": "ob/ob mice; [1]", "value": "reduced over time"}, {"measurement": "plasma glucose levels, fasted state", "setting": "ob/ob mice; day 19", "value": "significant reductions in plasma glucose levels"}, {"measurement": "liver toxicity (plasma transaminase levels, weekly)", "setting": "DIO mice; 25 mg/kg s.c. twice weekly, 25 mg/kg", "value": "did not cause significant increases in liver toxicity"}, {"measurement": "insulin levels", "setting": "DIO mice", "value": "effective at reducing insulin levels"}]}
{"substance": "CACAAACCATTATGTGCTGCTA (chemistry not given here) [ISIS 327951, uniform 2′-MOE PS; targets mir-15a-1]", "values": [{"measurement": "luciferase activity from the pGL3-mir-15a sensor plasmid", "setting": "mir-15a miRNA; HeLa, 3-, 10- or 30 nM", "value": "blocked the inhibitory effect of mir-15a"}, {"measurement": "levels of the mir-15a pri-miRNA molecule", "setting": "mir-15a pri-miRNA; 100 nM", "value": "stimulate an increase in levels of the mir-15a pri-miRNA molecule"}]}
{"substance": "CTAGTGGTCCTAAACATTTCAC (chemistry not given here) [ISIS 345349, 5-10-7 gapmer; targets mir-203]", "values": [{"measurement": "plasma triglyceride levels", "setting": "ob/ob mice; [1]", "value": "reduced over time"}, {"measurement": "insulin levels", "setting": "DIO mice", "value": "effective at reducing insulin levels"}]}
